Reference: US20080045535A1, “Prokineticin 2 receptor antagonists” (priority 2005, published 2008)
Several values for one entry are separate records, joined by “and”; a condition that tells them apart may be missing. Identical values can stand only once.

Molecular target: T1, HEK 293 GPR73 (prokineticin 1 receptor) expressing cells (Homo sapiens, UniProt Q8TCW9)
T1 construct: expressed in transfected cells; host or cells: HEK 293
Experiment: PK1 functional assay: screening for PK1 antagonists on the FLIPR (calcium fluorescence)
Assay type: cell-based
Settings: HEK 293 GPR73 cells; for inhibition at 10 µM: HEK293, compound at 10 μM, read-out: Ca^2+ Mobilization % Inh @10 μM; for inhibition at 10 µM / Ca^2+ Mobilization % Inh @10 μM: multiple values = repeat tests; for IC50: PK1 ligand at EC50, multiple values = repeat tests, read-out: Ca^2+ Mobilization IC50; for Ca^2+ Mobilization % Inh @10 μM: compound at 10 μM
Procedure: At a time of 24 h prior to running the assay, in cell culture media (DMEM containing high Glucose and L-glutamine, 10% FBS, 1% Pen/Streptomycin, 1% Sodium Pyruvate, 20 mM HEPES, Zeocin 200 mg/L), 100 μL of 1.3*10^6/ml HEK 293 GPR73 (prokineticin 1 receptor) expressing cells were plated in a 96 well poly-d-lysine coated plate (Costar), and incubated at 37 C and 5% CO2. On the day in which the assay was run, the media was removed and 200 μL of 5× Calcium Plus Dye (Molecular Devices) which was previously resuspended with 200 mL of assay buffer [HBSS w/Ca^2+ and Mg^2+ w/o phenol red, 20 mM HEPES, 0.1% BSA, 10 mL probenecid (710 mg probenecid in 5 mL of 1N NaOH, to which was then added 5 mL HBSS containing 20 mM HEPES)] was added to each well of the 96-well plate. The plate was incubated at 37 C and 5% CO2 for 30 min in dark. The plate was removed and allowed to reach RT for 15 min in the dark. The assay was then run on the FLIPR. […] Baseline is described as the amount of relative fluorescence read when buffer alone is added to cells. Baseline was subtracted from all wells. Percent of control was calculated as follows:
(Baseline subtracted well value is divided by baseline subtracted max value)*100.
Percent inhibition is 100 minus the percent of control value.
IC50 values were calculated using GraphPad Prism.
Table 2 includes data generated from the PK1 functional assay described in Example 2.

T1 sequence (Q8TCW9 whole entry): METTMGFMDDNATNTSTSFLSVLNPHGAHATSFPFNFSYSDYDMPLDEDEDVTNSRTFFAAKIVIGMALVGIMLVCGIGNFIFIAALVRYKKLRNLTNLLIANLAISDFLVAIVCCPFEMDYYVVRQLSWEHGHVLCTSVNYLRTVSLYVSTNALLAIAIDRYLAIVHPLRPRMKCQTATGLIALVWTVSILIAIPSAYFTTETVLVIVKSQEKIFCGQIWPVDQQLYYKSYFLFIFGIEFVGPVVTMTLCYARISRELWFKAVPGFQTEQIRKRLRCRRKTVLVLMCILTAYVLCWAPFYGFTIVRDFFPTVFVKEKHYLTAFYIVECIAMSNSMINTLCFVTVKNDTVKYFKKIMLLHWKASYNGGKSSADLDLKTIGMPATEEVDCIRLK

Row | SMILES | inhibition at 10 µM | IC50 | Ca^2+ Mobilization % Inh @10 μM (10 µM) | Ca^2+ Mobilization % Inh @10 μM
1 | COc1ccc(Cn2c(N[C@@H]3CCCC[C@H]3NC(=N)N)nc(=O)n(Cc3ccc(Cl)cc3)c2=O)cc1 [Cpd 56] | 98% | 61 nM | – | –
2 | N=C(N)NCCNc1nc(=O)n(Cc2ccc(Cl)c(Cl)c2)c(=O)n1Cc1cccc(OC(F)F)c1 [Cpd 57] | 51% | 8210 nM | – | –
3 | COc1ccc(Cn2c(NCCN(C(=N)N)C(C)C)nc(=O)n(Cc3ccc(Cl)c(Cl)c3)c2=O)cc1 [Cpd 58, N-{2-[5-(3,4-Dichloro-benzyl)-1-(4-methoxy-benzyl)-4,6-dioxo-1,4,5,6-tetrahydro-[1,3,5]triazin-2-ylamino]-ethyl}-N-isopropyl-guanidine] | – | 16 nM | 102% and 99% and 98% | –
4 | CCN(CCNc1nc(=O)n(Cc2ccc(Cl)c(Cl)c2)c(=O)n1Cc1ccc(OC)cc1)C(=N)N [Cpd 59] | 99% | 50 nM and 35 nM | 100% | –
5 | COc1ccc(Cn2c(NCCN3CCNC3=N)nc(=O)n(Cc3ccc(Cl)c(Cl)c3)c2=O)cc1 [Cpd 60, 3-(3,4-Dichloro-benzyl)-6-[2-(2-imino-imidazolidin-1-yl)-ethylamino]-1-(4-methoxy-benzyl)-1H-[1,3,5]triazine-2,4-dione] | 100% | 54 nM | – | –
6 | CCCCNC(=N)NCCNc1nc(=O)n(Cc2ccc(Cl)c(Cl)c2)c(=O)n1Cc1ccc(OC)cc1 [Cpd 61] | 102% | 45 nM | – | –
7 | COc1ccc(Cn2c(NCCNC(=N)NC3CCCCC3)nc(=O)n(Cc3ccc(Cl)c(Cl)c3)c2=O)cc1 [Cpd 62] | 98% | 59 nM | – | –
8 | COc1ccc(Cn2c(NCCNC(=N)NCc3ccccc3)nc(=O)n(Cc3ccc(Cl)c(Cl)c3)c2=O)cc1 [Cpd 63] | 101% | 120 nM | – | –
9 | COc1ccc(Cn2c(NCCNC(=N)NCC3CCCO3)nc(=O)n(Cc3ccc(Cl)c(Cl)c3)c2=O)cc1 (stereo not shown) [Cpd 64] | 100% | 72 nM | – | –
10 | COc1ccc(Cn2c(NCCNC(=N)NCCc3ccccc3)nc(=O)n(Cc3ccc(Cl)c(Cl)c3)c2=O)cc1 [Cpd 65] | – | 485 nM | – | 88%
11 | COc1ccc(Cn2c(NCCNC(=N)NCc3ccco3)nc(=O)n(Cc3ccc(Cl)c(Cl)c3)c2=O)cc1 [Cpd 66] | 99% | 23 nM | – | –
12 | COCCNC(=N)NCCNc1nc(=O)n(Cc2ccc(Cl)c(Cl)c2)c(=O)n1Cc1ccc(OC)cc1 [Cpd 67] | 99% | 18 nM | – | –
13 | COc1ccc(Cn2c(NCCCNC(=N)N)nc(=O)n(Cc3ccc(Cl)c(Cl)c3)c2=O)cc1 [Cpd 68] | 84% | 1210 nM | – | –
14 | C=CCNC(=N)NCCNc1nc(=O)n(Cc2ccc(Cl)c(Cl)c2)c(=O)n1Cc1ccc(OC)cc1 [Cpd 70] | 101% | 9 nM and 7 nM | – | 101, 101%
15 | COc1ccc(Cn2c(NCCNC(=N)Nc3ccccc3)nc(=O)n(Cc3ccc(Cl)c(Cl)c3)c2=O)cc1 [Cpd 71] | 100% | 12 nM and 7 nM | 99% | –
16 | COc1ccc(Cn2c(NCCNC(=N)Nc3ccc(OC)cc3)nc(=O)n(Cc3ccc(Cl)c(Cl)c3)c2=O)cc1 [Cpd 72] | 100% | 64 nM | – | –
17 | COc1ccc(Cn2c(NCCNC(=N)Nc3ccc(Cl)cc3)nc(=O)n(Cc3ccc(Cl)c(Cl)c3)c2=O)cc1 [Cpd 73] | 100% | 39 nM | – | –
18 | COc1ccc(Cn2c(NCCNC(=N)Nc3ccc(C(F)(F)F)cc3)nc(=O)n(Cc3ccc(Cl)c(Cl)c3)c2=O)cc1 [Cpd 74] | 100% | 138 nM | – | –
19 | COc1ccc(Cn2c(NCCNC(=N)Nc3cccnc3)nc(=O)n(Cc3ccc(Cl)c(Cl)c3)c2=O)cc1 [Cpd 75] | 101% | 36 nM | – | –
20 | COc1ccc(Cn2c(NCCNC(=N)Nc3ccc(C(C)=O)cc3)nc(=O)n(Cc3ccc(Cl)c(Cl)c3)c2=O)cc1 [Cpd 76] | 93% | 230 nM | – | –
21 | COc1ccc(Cn2c(NCCNC(=N)N)nc(=O)n(Cc3ccoc3)c2=O)cc1 [Cpd 77] | 81% | 789 nM | – | –
22 | COc1ccc(Cn2c(NCCNC(=N)N)nc(=O)n(Cc3cccs3)c2=O)cc1 [Cpd 78] | 89% | 300 nM | – | –

Row | SMILES | inhibition at 10 µM | IC50 | Ca^2+ Mobilization % Inh @10 μM (10 µM) | Ca^2+ Mobilization % Inh @10 μM
23 | COc1ccc(Cn2c(NCCNC(=N)N)nc(=O)n(C(C)c3ccc(OC)cc3)c2=O)cc1 (stereo not shown) [Cpd 79] | 101% | 71 nM | – | –
24 | COc1ccc(Cn2c(NCCNC(=N)N)nc(=O)n(Cc3ccc(OC(F)F)cc3)c2=O)cc1 [Cpd 80] | 100% | 71 nM | – | –
25 | COc1ccc(Cn2c(NCCNC(=N)N)cc(=O)n(Cc3ccccc3)c2=O)cc1 [Cpd 81, N-{2-[1-Benzyl-3-(4-methoxy-benzyl)-2,6-dioxo-1,2,3,6-tetrahydro-pyrimidin-4-ylamino]-ethyl}-guanidine] | 84% | 452 nM | – | –
26 | C=CCC(c1ccc(OC)cc1)n1c(=O)nc(NCCNC(=N)N)n(Cc2ccc(OC)cc2)c1=O (stereo not shown) [Cpd 82] | 84% | 498 nM | – | –
27 | C=CCC(c1ccc(Cl)cc1)n1c(=O)nc(NCCNC(=N)N)n(Cc2ccc(OC)cc2)c1=O (stereo not shown) [Cpd 83] | 80% | 988 nM | – | –
28 | COc1ccc(Cn2c(NCCNC(=N)N)cc(=O)n(Cc3ccc(OC)cc3)c2=O)cc1 [Cpd 84, N-{2-[1,3-Bis-(4-methoxy-benzyl)-2,6-dioxo-1,2,3,6-tetrahydro-pyrimidin-4-ylamino]-ethyl}-guanidine] | 99% | 42 nM | – | –
29 | COc1ccc(Cn2c(=O)nc(NCCNC(=N)N)n(Cc3ccc(OC)nc3)c2=O)cc1 [Cpd 85] | 96% | 51 nM | – | –
30 | COc1ccc(Cn2c(=O)nc(NCCNC(=N)N)n(CC3CCC(OC)CC3)c2=O)cc1 (stereo not shown) [Cpd 86] | 61% | 3260 nM | – | –
31 | N=C(N)NCCNc1nc(=O)n(Cc2ccc(F)cc2)c(=O)n1Cc1ccc([N+](=O)[O-])cc1 [Cpd 87] | 38% | > 10000 nM | – | –
32 | COc1ccc(Cn2c(NCCNC(=N)NCCN3CCOCC3)nc(=O)n(Cc3ccc(F)cc3)c2=O)cc1 [Cpd 88] | 59% | 4740 nM | – | –
33 | COc1ccc(Cn2c(NCCNC(=N)NCCCN3CCOCC3)nc(=O)n(Cc3ccc(F)cc3)c2=O)cc1 [Cpd 89] | 46% | 9070 nM | – | –
34 | COc1ccc(Cn2c(NCCN(C(=N)N)c3ccc(C#N)cc3)nc(=O)n(Cc3ccc(F)cc3)c2=O)cc1 [Cpd 90, N-(4-Cyano-phenyl)-N-{2-[5-(4-fluoro-benzyl)-1-(4-methoxy-benzyl)-4,6-dioxo-1,4,5,6-tetrahydro-[1,3,5]triazin-2-ylamino]-ethyl}-guanidine] | – | 31 nM and 43 nM | 100% and 101% | –
35 | COc1ccc(Cn2c(NCCNC(=N)Nc3ccc([N+](=O)[O-])cc3)nc(=O)n(Cc3ccc(F)cc3)c2=O)cc1 [Cpd 91] | 101% | 54 nM | – | –
36 | COc1ccc(Cn2c(NCCNC(=N)Nc3ccc4c(c3)OCO4)nc(=O)n(Cc3ccc(F)cc3)c2=O)cc1 [Cpd 92] | 97% | 40 nM | – | –
37 | COc1ccc(Cn2c(NCCNC(=N)NN)nc(=O)n(Cc3ccc(F)cc3)c2=O)cc1 [Cpd 93, N-{2-[5-(4-Fluoro-benzyl)-1-(4-methoxy-benzyl)-4,6-dioxo-1,4,5,6-tetrahydro-[1,3,5]triazin-2-ylamino]-ethyl}-AN-amino-guanidine] | 92% | 227 nM | – | –
38 | COc1ccc(Cn2c(NCCNC(=N)N)nc(=O)n(Cc3cccc([N+](=O)[O-])c3)c2=O)cc1 [Cpd 94] | 60% | 4800 nM | – | –
39 | COc1ccc(Cn2c(NCCNC(=N)N)nc(=O)n(Cc3ccc([N+](=O)[O-])cc3)c2=O)cc1 [Cpd 95, N-{2-[1-(4-Methoxy-benzyl)-5-(4-nitro-benzyl)-4,6-dioxo-1,4,5,6-tetrahydro-[1,3,5]triazin-2-ylamino]-ethyl}-guanidine] | 96% | 84 nM | – | –
40 | COc1ccc(Cn2c(NCCNC(=N)N)nc(=O)n(Cc3cccc(N)c3)c2=O)cc1 [Cpd 96] | 43% | > 10000 nM | – | –
41 | COc1ccc(Cn2c(NCCNC(=N)N)nc(=O)n(Cc3ccc(C#N)cc3)c2=O)cc1 [Cpd 97] | 86% | 318 nM | – | –
42 | COc1ccc(Cn2c(NCCNC(=N)N)nc(=O)n(Cc3cccc(C#N)c3)c2=O)cc1 [Cpd 98] | 34% | > 10000 nM | – | –
43 | [H]/N=C(\N)NCCNc1nc(=O)n(Cc2ccc(C(=O)OC)cc2)c(=O)n1Cc1ccc(OC)cc1 [Cpd 99] | 73% | 794 nM | – | –
44 | COC(=O)c1cccc(Cn2c(=O)nc(NCCNC(=N)N)n(Cc3ccc(OC)cc3)c2=O)c1 [Cpd 100] | 48% | 8820 nM | – | –
